{"source": "ChEMBL document CHEMBL3885861", "about": "“Open TG-GATES”", "species": "Rattus norvegicus", "experiment": "Open TG-GATES - Regimen: Single", "assay_type": "toxicity, organism-based, Sprague-Dawley", "parameters": "regimen Single, gender Male, age 6 weeks", "settings": "in vivo, iv, 3 mg/kg, route intravenous injection, dose level High; for KIDNEY_L / KIDNEY_R / KIDNEY_TOTAL: tissue Kidney; for LIVER: tissue Liver", "data": [{"sequence": "CISPLATIN", "values": [{"measurement": "APTT", "setting": "6 h, tissue Blood", "result": 22, "unit": "s"}, {"measurement": "Bas", "setting": "6 h, tissue Blood", "result": 0, "unit": "%"}, {"measurement": "Eos", "setting": "6 h, tissue Blood", "result": 0.8, "unit": "%"}, {"measurement": "Fbg", "setting": "6 h, tissue Blood", "result": 280.6, "unit": "mg/dL"}, {"measurement": "Hb", "setting": "6 h, tissue Blood", "result": 12.9, "unit": "g/dL"}, {"measurement": "Ht", "setting": "6 h, tissue Blood", "result": 39.8, "unit": "%"}, {"measurement": "MCV", "setting": "6 h, tissue Blood", "result": 64, "unit": "fL"}, {"measurement": "Mono", "setting": "6 h, tissue Blood", "result": 2.8, "unit": "%"}, {"measurement": "PT", "setting": "6 h, tissue Blood", "result": 15.3, "unit": "s"}, {"measurement": "Plat", "setting": "6 h, tissue Blood", "result": 123.5, "unit": "x10_4/uL"}, {"measurement": "RBC", "setting": "6 h, tissue Blood", "result": 623.2, "unit": "x10_4/ul"}, {"measurement": "Ret", "setting": "6 h, tissue Blood", "result": 6.2, "unit": "%"}, {"measurement": "WBC", "setting": "6 h, tissue Blood", "result": 89, "unit": "x10_2/uL"}, {"measurement": "KIDNEY_L", "setting": "6 h", "result": 0.9, "unit": "g"}, {"measurement": "KIDNEY_R", "setting": "6 h", "result": 0.9, "unit": "g"}, {"measurement": "KIDNEY_TOTAL", "setting": "6 h", "result": 1.9, "unit": "g"}, {"measurement": "LIVER", "setting": "6 h", "result": 9.1, "unit": "g"}, {"measurement": "ALP", "setting": "6 h, tissue Plasma", "result": 1307.8, "unit": "IU/L"}, {"measurement": "ALT", "setting": "6 h, tissue Plasma", "result": 42.6, "unit": "IU/L"}, {"measurement": "AST", "setting": "6 h, tissue Plasma", "result": 81, "unit": "IU/L"}, {"measurement": "CRE", "setting": "6 h, tissue Plasma", "result": 0.2, "unit": "mg/dL"}, {"measurement": "DBIL", "setting": "6 h, tissue Plasma", "result": 0, "unit": "mg/dL"}, {"measurement": "GLC", "setting": "6 h, tissue Plasma", "result": 177.2, "unit": "mg/dL"}, {"measurement": "IP", "setting": "6 h, tissue Plasma", "result": 9.5, "unit": "mg/dL"}, {"measurement": "K", "setting": "6 h, tissue Plasma", "result": 4.7, "unit": "meq/L"}, {"measurement": "Na", "setting": "6 h, tissue Plasma", "result": 139, "unit": "meq/L"}, {"measurement": "PL", "setting": "6 h, tissue Plasma", "result": 127.8, "unit": "mg/dL"}, {"measurement": "RALB", "setting": "6 h, tissue Plasma", "result": 2.9, "unit": "g/dL"}, {"measurement": "TBIL", "setting": "6 h, tissue Plasma", "result": 0, "unit": "mg/dL"}, {"measurement": "TC", "setting": "6 h, tissue Plasma", "result": 75, "unit": "mg/dL"}, {"measurement": "TG", "setting": "6 h, tissue Plasma", "result": 79.2, "unit": "mg/dL"}, {"measurement": "TP", "setting": "6 h, tissue Plasma", "result": 5.3, "unit": "g/dL"}, {"measurement": "gamma-GTP", "setting": "6 h, tissue Plasma", "result": 1.8, "unit": "IU/L"}, {"measurement": "TERMINAL_BW", "setting": "9 h", "result": 213.7, "unit": "g"}, {"measurement": "APTT", "setting": "9 h, tissue Blood", "result": 22.3, "unit": "s"}, {"measurement": "Bas", "setting": "9 h, tissue Blood", "result": 0, "unit": "%"}, {"measurement": "Eos", "setting": "9 h, tissue Blood", "result": 0.6, "unit": "%"}, {"measurement": "Fbg", "setting": "9 h, tissue Blood", "result": 287.4, "unit": "mg/dL"}, {"measurement": "Ht", "setting": "9 h, tissue Blood", "result": 38.5, "unit": "%"}, {"measurement": "Lym", "setting": "9 h, tissue Blood", "result": 79.8, "unit": "%"}, {"measurement": "MCHC", "setting": "9 h, tissue Blood", "result": 32.7, "unit": "%"}, {"measurement": "Mono", "setting": "9 h, tissue Blood", "result": 1.8, "unit": "%"}, {"measurement": "PT", "setting": "9 h, tissue Blood", "result": 15.4, "unit": "s"}, {"measurement": "Plat", "setting": "9 h, tissue Blood", "result": 137.7, "unit": "x10_4/uL"}, {"measurement": "RBC", "setting": "9 h, tissue Blood", "result": 615.8, "unit": "x10_4/ul"}, {"measurement": "Ret", "setting": "9 h, tissue Blood", "result": 5.4, "unit": "%"}, {"measurement": "WBC", "setting": "9 h, tissue Blood", "result": 60.5, "unit": "x10_2/uL"}, {"measurement": "KIDNEY_L", "setting": "9 h", "result": 1, "unit": "g"}, {"measurement": "KIDNEY_R", "setting": "9 h", "result": 1, "unit": "g"}, {"measurement": "KIDNEY_TOTAL", "setting": "9 h", "result": 1.9, "unit": "g"}, {"measurement": "LIVER", "setting": "9 h", "result": 8.6, "unit": "g"}, {"measurement": "ALP", "setting": "9 h, tissue Plasma", "result": 1222.8, "unit": "IU/L"}, {"measurement": "ALT", "setting": "9 h, tissue Plasma", "result": 37.8, "unit": "IU/L"}, {"measurement": "AST", "setting": "9 h, tissue Plasma", "result": 73, "unit": "IU/L"}, {"measurement": "BUN", "setting": "9 h, tissue Plasma", "result": 12, "unit": "mg/dL"}, {"measurement": "CRE", "setting": "9 h, tissue Plasma", "result": 0.1, "unit": "mg/dL"}, {"measurement": "Ca", "setting": "9 h, tissue Plasma", "result": 11, "unit": "mg/dL"}, {"measurement": "DBIL", "setting": "9 h, tissue Plasma", "result": 0, "unit": "mg/dL"}, {"measurement": "GLC", "setting": "9 h, tissue Plasma", "result": 178.6, "unit": "mg/dL"}, {"measurement": "IP", "setting": "9 h, tissue Plasma", "result": 9.8, "unit": "mg/dL"}, {"measurement": "K", "setting": "9 h, tissue Plasma", "result": 4.4, "unit": "meq/L"}, {"measurement": "LDH", "setting": "9 h, tissue Plasma", "result": 133.4, "unit": "IU/L"}, {"measurement": "Na", "setting": "9 h, tissue Plasma", "result": 140.2, "unit": "meq/L"}, {"measurement": "PL", "setting": "9 h, tissue Plasma", "result": 124, "unit": "mg/dL"}, {"measurement": "RALB", "setting": "9 h, tissue Plasma", "result": 3, "unit": "g/dL"}, {"measurement": "TBIL", "setting": "9 h, tissue Plasma", "result": 0.024, "unit": "mg/dL"}, {"measurement": "TC", "setting": "9 h, tissue Plasma", "result": 70.2, "unit": "mg/dL"}, {"measurement": "TG", "setting": "9 h, tissue Plasma", "result": 57, "unit": "mg/dL"}, {"measurement": "TP", "setting": "9 h, tissue Plasma", "result": 5.4, "unit": "g/dL"}, {"measurement": "gamma-GTP", "setting": "9 h, tissue Plasma", "result": 1.8, "unit": "IU/L"}, {"measurement": "TERMINAL_BW", "setting": "24 h", "result": 220, "unit": "g"}, {"measurement": "APTT", "setting": "24 h, tissue Blood", "result": 22.6, "unit": "s"}, {"measurement": "Bas", "setting": "24 h, tissue Blood", "result": 0, "unit": "%"}, {"measurement": "Eos", "setting": "24 h, tissue Blood", "result": 0.6, "unit": "%"}, {"measurement": "Fbg", "setting": "24 h, tissue Blood", "result": 297.2, "unit": "mg/dL"}, {"measurement": "Ht", "setting": "24 h, tissue Blood", "result": 40.2, "unit": "%"}, {"measurement": "Lym", "setting": "24 h, tissue Blood", "result": 87, "unit": "%"}, {"measurement": "MCH", "setting": "24 h, tissue Blood", "result": 21, "unit": "pg"}, {"measurement": "MCHC", "setting": "24 h, tissue Blood", "result": 33, "unit": "%"}, {"measurement": "MCV", "setting": "24 h, tissue Blood", "result": 63.8, "unit": "fL"}, {"measurement": "Mono", "setting": "24 h, tissue Blood", "result": 2.8, "unit": "%"}, {"measurement": "Neu", "setting": "24 h, tissue Blood", "result": 9.4, "unit": "%"}, {"measurement": "Plat", "setting": "24 h, tissue Blood", "result": 134.6, "unit": "x10_4/uL"}, {"measurement": "RBC", "setting": "24 h, tissue Blood", "result": 629.2, "unit": "x10_4/ul"}, {"measurement": "Ret", "setting": "24 h, tissue Blood", "result": 3.9, "unit": "%"}, {"measurement": "WBC", "setting": "24 h, tissue Blood", "result": 73, "unit": "x10_2/uL"}, {"measurement": "KIDNEY_L", "setting": "24 h", "result": 1, "unit": "g"}, {"measurement": "KIDNEY_R", "setting": "24 h", "result": 1, "unit": "g"}, {"measurement": "KIDNEY_TOTAL", "setting": "24 h", "result": 2, "unit": "g"}, {"measurement": "LIVER", "setting": "24 h", "result": 9.6, "unit": "g"}, {"measurement": "ALP", "setting": "24 h, tissue Plasma", "result": 1429.2, "unit": "IU/L"}, {"measurement": "ALT", "setting": "24 h, tissue Plasma", "result": 39, "unit": "IU/L"}, {"measurement": "AST", "setting": "24 h, tissue Plasma", "result": 72.4, "unit": "IU/L"}, {"measurement": "BUN", "setting": "24 h, tissue Plasma", "result": 16.2, "unit": "mg/dL"}, {"measurement": "CRE", "setting": "24 h, tissue Plasma", "result": 0.2, "unit": "mg/dL"}, {"measurement": "DBIL", "setting": "24 h, tissue Plasma", "result": 0, "unit": "mg/dL"}, {"measurement": "GLC", "setting": "24 h, tissue Plasma", "result": 181, "unit": "mg/dL"}, {"measurement": "IP", "setting": "24 h, tissue Plasma", "result": 8.3, "unit": "mg/dL"}, {"measurement": "K", "setting": "24 h, tissue Plasma", "result": 4.3, "unit": "meq/L"}, {"measurement": "Na", "setting": "24 h, tissue Plasma", "result": 140, "unit": "meq/L"}, {"measurement": "PL", "setting": "24 h, tissue Plasma", "result": 147.2, "unit": "mg/dL"}, {"measurement": "RALB", "setting": "24 h, tissue Plasma", "result": 3.1, "unit": "g/dL"}, {"measurement": "TBIL", "setting": "24 h, tissue Plasma", "result": 0.024, "unit": "mg/dL"}, {"measurement": "TC", "setting": "24 h, tissue Plasma", "result": 89.2, "unit": "mg/dL"}, {"measurement": "TG", "setting": "24 h, tissue Plasma", "result": 51.8, "unit": "mg/dL"}, {"measurement": "TP", "setting": "24 h, tissue Plasma", "result": 5.5, "unit": "g/dL"}, {"measurement": "gamma-GTP", "setting": "24 h, tissue Plasma", "result": 1.8, "unit": "IU/L"}]}]}
